We go through 12 compounds from patent US20150368248A1, “2-SUBSTITUTED-6-BIARYLMETHYLAMINO-9-CYCLOPENTYL-9H-PURINE DERIVATIVES, USE THEREOF AS MEDICAMENTS, AND PHARMACEUTICAL COMPOSITIONS” (UNIVERZITA PALACKEHO V OLOMOUCI, priority 2013, published 2015).

Experiment [1] concerns Hep3B. Kind of experiment: MTT cytotoxicity assay (Example 30). Format: cell-based, human. Conditions: Homo sapiens, Hep3B, 72 h; MTT, three days after drug addition; read-out: Inhibitory concentration IC50, Hep3B. How it is done: Cytotoxicity of the compounds is the major property determining their anticancer effect in vivo. One of the parameters used, as the basis for cytotoxicity assays, is the metabolic activity of viable cells.
We have been using the following cell lines: HUH-7 and PLC/PRF/5 cell lines were maintained in DMEM supplemented with 10% fetal bovine serum, penicillin (100 U/ml) and streptomycin (100 μg/ml). […] HepG2 cell line was maintained in EMEM supplemented with 10% fetal bovine serum, sodium pyruvate (0.11 g/1), penicillin (100 U/ml) and streptomycin (100 μg/ml). All cell lines were cultivated at 37° C. in 5% CO2. For cytotoxicity assays, 3000 cells (10000 cells in case of HepG2 cell line) were seeded into each well of 96 well plate and the next day tested compounds were added at various concentrations in triplicates. Three days after drug addition MTT stock solution (5 mg/ml) was added into each well and incubated for 4 h. After this incubation period, produced formazan was dissolved by DMSO and final absorbance was measured at 570 nm with Synergy H4 Hybrid Multi-Mode Microplate Reader.
(In general: Formazan colour is commonly taken as a measure of viable cells.)

Experiment [2] relates to HepG2. Put plainly: MTT cytotoxicity assay (Example 30). It counts as cell-based. Conditions: Homo sapiens, HepG2, 72 h; MTT, three days after drug addition; read-out: Inhibitory concentration IC50, HepG2. The text has this: Cytotoxicity of the compounds is the major property determining their anticancer effect in vivo. One of the parameters used, as the basis for cytotoxicity assays, is the metabolic activity of viable cells. For example, a microtiter assay, which uses (3-(4,5-Dimethylthiazol-2-yl)-2,5-diphenyltetrazolium bromide (MTT), is widely used to quantitate cell proliferation and cytotoxicity. For instance, this assay is used in drug screening programs and in chemosensitivity testing. Because only metabolically active living cells reduce MTT to correspond purple formazan dye, these assays detect viable cells exclusively. The quantity of reduced MTT corresponds to the number of vital cells in the culture.
We have been using the following cell lines: HUH-7 and PLC/PRF/5 cell lines were maintained in DMEM supplemented with 10% fetal bovine serum, penicillin (100 U/ml) and streptomycin (100 μg/ml). Unique HCC-1.2 (3p) and HCC-1.1 (3sp) cell lines (Zilj et al., 2009, Future Oncol, 5(8):1169-79) and Hep3B cells were cultivated in RPMI supplemented with 10% fetal bovine serum, penicillin (100 U/ml) and streptomycin (100 μg/ml). HepG2 cell line was maintained in EMEM supplemented with 10% fetal bovine serum, sodium pyruvate (0.11 g/1), penicillin (100 U/ml) and streptomycin (100 μg/ml). All cell lines were cultivated at 37° C. in 5% CO2. For cytotoxicity assays, 3000 cells (10000 cells in case of HepG2 cell line) were seeded into each well of 96 well plate and the next day tested compounds were added at various concentrations in triplicates. Three days after drug addition MTT stock solution (5 mg/ml) was added into each well and incubated for 4 h. After this incubation period, produced formazan was dissolved by DMSO and final absorbance was measured at 570 nm with Synergy H4 Hybrid Multi-Mode Microplate Reader.

Experiment [3] has as its system human umbilical vein endothelial cells (HUVEC). Kind of experiment: HUVEC proliferation, Calcein AM. Conditions: Homo sapiens, HUVEC, read-out: Inhibitory concentration for HUVEC cells - IC50. Format: cell-based. The method, then: Novel 2-substituted-6-biarylmethylamino-9-cyclopentyl-9H-purine derivatives were tested for their potential anti-angiogenic properties; we analyzed its influence on the proliferation (Tab. 9), migration and tube formation of human umbilical vein endothelial cells (HUVEC). Confluent HUVECs were seeded in 96-well microtiter plates to detect their proliferation for 24 or 72 h using Calcein AM solution (Invitrogen) and a Fluoroskan Ascent microplate reader (Labsystems) as described previously (Krystof et al., 2011, Eur J Med Chem. 2011 September; 46(9):4289-94).

Experiment [4] addresses T1, CDK5/p35 (Homo sapiens, UniProt Q00535).
T1 construct: purchased ProQinase GmbH (Freiburg, Germany)
Put plainly: Kinase inhibition assay, recombinant kinase, [γ-33P]ATP. Format: biochemical. The settings on record: read-out: Residual kinase activity, CDK5; for remaining activity at 0.1 µM: 100 nM; for remaining activity at 1 µM: 1000 nM. The method, then:
(§1) CDK2/Cyclin E kinase was produced in Sf9 insect cells via baculoviral infection and purified on a NiNTA column (Qiagen). CDK5/p35, CDK7Cyclin H/MAT1 and CDK9/Cyclin T1 was purchased from ProQinase GmbH. The kinase reactions were assayed with 1 mg/mL histone H1 (for CDK2 and CDK5) or (YSPTSPS)2KK peptide (for CDK7 and CDK9) in the presence of 15/0.15/1.5/1.5 μM ATP (for CDK2/CDK5/CDK7CDK9), 0.05 μCi [γ-^33P]ATP and of the test compound in a final volume of 10 μL, all in a reaction buffer (60 mM HEPES-NaOH, pH 7.5, 3 mM MgCl2, 3 mM MnCl2, 3 μM Na-orthovanadate, 1.2 mM DTT, 2.5 μg/50 μl PEG20,000). The reactions were stopped by adding 5 μL of 3% aq H3PO4. Aliquots were spotted onto P-81 phosphocellulose (Whatman), washed 3× with 0.5% aq H3PO4 and finally air-dried.
(§2) CDK1/cyclin B and CDK2/cyclin E kinases were produced in Sf9 insect cells via baculoviral infection, while CDK5/p35, CDK7/cyclin H/MAT1, and CDK9/cyclin T1 were purchased from ProQinase (Freiburg, Germany) and assayed as described previously (35). The kinase reactions were assayed with 1 mg/ml histone H1 (for CDK2 and CDK5) or (YSPTSPS)2KK peptide (for CDK7 and CDK9) in the presence of 15/0.15/1.5/1.5 […] ATP (for CDK2/CDK5/CDK7CDK9), […] [γ-^33P]ATP and of the test compound in a final volume of […]. The reaction buffer contained 60 mM HEPES-NaOH, pH 7.5, 3 mM MgCl2, 3 mM MnCl2, 3 mM Na-orthovanadate, 1.2 mM DTT, 2.5 mg/50 ml PEG20.000. The reactions were stopped by adding […] of 3% H3PO4. Aliquots were spotted onto P-81 phosphocellulose (Whatman, GE Healthcare Biosciences, Pittsburgh, USA), washed 3 times with 0.5% H3PO4 and finally air-dried. Kinase inhibition was quantified using a FLA-7000 digital image analyzer (Fujifilm, Tokyo, Japan).

In experiment [5] the target is T2, CDK7/cyclin H/MAT1 (Homo sapiens, UniProt P50613).
T2 construct: purchased ProQinase GmbH (Freiburg, Germany)
The description is as above. Format: biochemical. The settings on record: read-out: Residual kinase activity, CDK7; for remaining activity at 0.1 µM: 100 nM; for remaining activity at 1 µM: 1000 nM. How it is done:
as §1, §2

The target in experiment [6] is T3, CDK9/Cyclin T1 (Homo sapiens, UniProt P50750).
T3 construct: purchased ProQinase GmbH (Freiburg, Germany)
The experiment is described as above. It counts as biochemical. The settings on record: for remaining activity at 0.1 µM: 100 nM; for remaining activity at 0.1 µM / remaining activity at 1 µM: read-out: Residual kinase activity, CDK9; for remaining activity at 1 µM: 1000 nM. How it is done: as §1, §2

The structures appear in SMILES notation. Where two headings read alike, the source gives them in different places.

T3 sequence (P50750 whole entry): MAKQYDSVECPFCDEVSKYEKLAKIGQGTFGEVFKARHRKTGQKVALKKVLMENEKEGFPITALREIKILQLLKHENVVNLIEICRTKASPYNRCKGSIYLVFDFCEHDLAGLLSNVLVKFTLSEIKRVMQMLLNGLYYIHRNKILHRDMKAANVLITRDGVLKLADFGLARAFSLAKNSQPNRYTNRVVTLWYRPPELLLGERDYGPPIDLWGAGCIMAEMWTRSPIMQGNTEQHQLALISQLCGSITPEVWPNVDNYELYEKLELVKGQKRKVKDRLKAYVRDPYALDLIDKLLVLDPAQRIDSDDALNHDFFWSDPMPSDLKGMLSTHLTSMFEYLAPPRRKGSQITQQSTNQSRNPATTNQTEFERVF
T3 sequence (O60563 whole entry partner): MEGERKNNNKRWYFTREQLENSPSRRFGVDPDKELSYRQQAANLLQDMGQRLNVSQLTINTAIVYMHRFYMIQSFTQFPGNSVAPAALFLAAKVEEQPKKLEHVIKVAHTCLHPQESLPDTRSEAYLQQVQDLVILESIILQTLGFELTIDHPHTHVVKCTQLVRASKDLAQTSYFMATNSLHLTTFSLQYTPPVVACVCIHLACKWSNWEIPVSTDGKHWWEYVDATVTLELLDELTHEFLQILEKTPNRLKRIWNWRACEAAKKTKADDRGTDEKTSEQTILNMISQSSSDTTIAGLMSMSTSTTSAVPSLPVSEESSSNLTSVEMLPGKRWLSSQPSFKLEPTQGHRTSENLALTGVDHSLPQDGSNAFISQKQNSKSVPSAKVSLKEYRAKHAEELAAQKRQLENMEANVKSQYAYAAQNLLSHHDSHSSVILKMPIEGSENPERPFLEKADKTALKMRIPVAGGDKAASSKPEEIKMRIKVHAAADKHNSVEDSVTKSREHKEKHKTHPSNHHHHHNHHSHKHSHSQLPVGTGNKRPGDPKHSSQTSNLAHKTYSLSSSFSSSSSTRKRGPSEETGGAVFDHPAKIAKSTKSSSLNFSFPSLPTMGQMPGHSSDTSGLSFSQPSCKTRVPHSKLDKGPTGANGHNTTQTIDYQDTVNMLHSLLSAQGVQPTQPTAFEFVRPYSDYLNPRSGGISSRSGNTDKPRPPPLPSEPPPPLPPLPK
T2 sequence (P50613 whole entry): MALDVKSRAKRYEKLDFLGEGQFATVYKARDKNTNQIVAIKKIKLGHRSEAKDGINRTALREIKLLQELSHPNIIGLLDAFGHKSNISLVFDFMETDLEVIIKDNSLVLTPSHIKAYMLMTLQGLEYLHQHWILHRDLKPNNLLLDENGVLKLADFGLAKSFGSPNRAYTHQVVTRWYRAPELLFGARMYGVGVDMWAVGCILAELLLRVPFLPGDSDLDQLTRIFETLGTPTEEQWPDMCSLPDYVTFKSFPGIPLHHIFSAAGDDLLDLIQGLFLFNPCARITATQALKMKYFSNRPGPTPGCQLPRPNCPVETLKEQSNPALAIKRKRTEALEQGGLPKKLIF
T2 sequence (P51946 whole entry partner): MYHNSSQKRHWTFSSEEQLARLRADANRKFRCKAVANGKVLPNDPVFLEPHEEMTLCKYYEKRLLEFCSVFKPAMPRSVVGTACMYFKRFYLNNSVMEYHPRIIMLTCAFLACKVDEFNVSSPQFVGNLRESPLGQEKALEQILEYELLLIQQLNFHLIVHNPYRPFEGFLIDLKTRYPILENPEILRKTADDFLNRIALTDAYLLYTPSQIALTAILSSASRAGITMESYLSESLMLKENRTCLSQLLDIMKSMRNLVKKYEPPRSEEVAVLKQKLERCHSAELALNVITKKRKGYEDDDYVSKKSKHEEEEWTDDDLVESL
T2 sequence (P51948 whole entry partner): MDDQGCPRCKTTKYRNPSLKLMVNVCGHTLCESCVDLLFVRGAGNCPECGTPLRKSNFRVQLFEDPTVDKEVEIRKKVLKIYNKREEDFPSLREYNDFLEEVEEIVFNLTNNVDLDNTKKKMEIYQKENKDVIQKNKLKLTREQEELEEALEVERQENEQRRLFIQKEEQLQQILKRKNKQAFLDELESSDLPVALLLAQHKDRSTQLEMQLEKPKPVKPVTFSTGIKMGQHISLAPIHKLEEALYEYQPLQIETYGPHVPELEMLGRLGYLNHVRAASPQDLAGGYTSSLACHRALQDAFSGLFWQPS
T1 sequence (Q00535 whole entry): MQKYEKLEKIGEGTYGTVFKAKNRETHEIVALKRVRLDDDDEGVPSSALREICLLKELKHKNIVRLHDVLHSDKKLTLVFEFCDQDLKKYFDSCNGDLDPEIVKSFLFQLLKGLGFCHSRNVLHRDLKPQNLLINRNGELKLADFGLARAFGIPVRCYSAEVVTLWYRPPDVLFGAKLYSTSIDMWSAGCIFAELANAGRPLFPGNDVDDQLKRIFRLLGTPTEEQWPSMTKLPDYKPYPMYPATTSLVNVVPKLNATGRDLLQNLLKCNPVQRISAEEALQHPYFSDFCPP
T1 sequence (Q15078 whole entry partner): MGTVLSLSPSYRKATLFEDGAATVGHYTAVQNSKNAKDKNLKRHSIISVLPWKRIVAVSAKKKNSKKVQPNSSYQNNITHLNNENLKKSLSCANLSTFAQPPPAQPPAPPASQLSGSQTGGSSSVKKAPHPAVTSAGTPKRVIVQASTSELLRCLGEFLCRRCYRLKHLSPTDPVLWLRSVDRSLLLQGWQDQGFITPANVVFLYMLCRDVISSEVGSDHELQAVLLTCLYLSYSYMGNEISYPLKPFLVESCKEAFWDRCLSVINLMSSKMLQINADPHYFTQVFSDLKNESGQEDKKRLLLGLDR

On to `NC1CCC(Nc2nc(NCc3ccc(-c4cccs4)cc3)c3ncn(C4CCCC4)c3n2)CC1` (stereo not drawn) [BP2, N^2-(4-amino-cyclohexyl)-9-cyclopentyl-N^6-(4-thiophen-2-yl-benzyl)-9H-purine-2,6-diamine], for which the IC50 is 460 nM in experiment [1] and 444 nM in experiment [2].
Turning to `NC1CCC(Nc2nc(NCc3ccc(-c4ccco4)cc3)c3ncn(C4CCCC4)c3n2)CC1` (stereo not drawn) [BP4, N^2-(4-amino-cyclohexyl)-9-cyclopentyl-N^6-(4-furan-2-yl-benzyl)-9H-purine-2,6-diamine], the IC50 in experiment [3] (24 h) was 15700 nM; in experiment [3] (72 h) it was 450 nM; in experiment [1], 708 nM; in experiment [2], 389 nM.
Take `NC1CCC(Nc2nc(NCc3ccc(-c4ccsc4)cc3)c3ncn(C4CCCC4)c3n2)CC1` (stereo not drawn) [BP5, N^2-(4-amino-cyclohexyl)-9-cyclopentyl-N^6-(4-thiophen-3-yl-benzyl)-9H-purine-2,6-diamine]: the IC50 turned out to be 405 nM in experiment [1] and 247 nM in experiment [2].
For the compound `NC1CCC(Nc2nc(NCc3ccc(-c4cccc(F)c4)cc3)c3ncn(C4CCCC4)c3n2)CC1` (stereo not drawn) [BP12, N^2-(4-amino-cyclohexyl)-9-cyclopentyl-N^6-(3′-fluoro-biphenyl-4-ylmethyl)-9H-purine-2,6-diamine], the IC50 was 418 nM in experiment [1] and 248 nM in experiment [2].
In the same order, the values of `NC1CCC(Nc2nc(NCc3ccc(-c4ccoc4)cc3)c3ncn(C4CCCC4)c3n2)CC1` (stereo not drawn) [BP13, N^2-(4-amino-cyclohexyl)-9-cyclopentyl-N^6-(4-furan-3-yl-benzyl)-9H-purine-2,6-diamine] are 518 nM and 256 nM.
Consider `NC1CCC(Nc2nc(NCc3ccc(-c4ccco4)nc3)c3ncn(C4CCCC4)c3n2)CC1` (stereo not drawn) [BP14, N^2-(4-amino-cyclohexyl)-9-cyclopentyl-N^6-(6-furan-2-yl-pyridin-3-ylmethyl)-9H-purine-2,6-diamine], for which the remaining activity at 0.1 µM in experiment [4] came to 37.8%; in experiment [5], 54.8%; in experiment [6], 22.3%. In addition, the remaining activity at 1 µM was determined as 24.8% in experiment [4], 23.9% in experiment [5] and 0.73% in experiment [6]. In addition, the IC50 is 7 nM in experiment [6] (Table 12, read-out: IC50, CDK9/cyklin T); greater than 50000 nM in experiment [3] (24 h); 50 nM in experiment [3] (72 h); 58 nM in experiment [1]; 211 nM in experiment [2].
As to `COc1ccccc1-c1ccc(CNc2nc(NC3CCC(N)CC3)nc3c2ncn3C2CCCC2)cc1` (stereo not drawn) [BP16, N^2-(4-amino-cyclohexyl)-9-cyclopentyl-N^6-(2′-methoxy-biphenyl-4-ylmethyl)-9H-purine-2,6-diamine], the IC50 in experiment [1] is 532 nM; in experiment [2], 937 nM.
For the compound `COc1ccccc1-c1ccc(CNc2nc(NC3CCC(N)CC3)nc3c2ncn3C2CCCC2)cn1` (stereo not drawn) [BP18, N^2-(4-amino-cyclohexyl)-9-cyclopentyl-N^6-[6-(2-methoxy-phenyl)-pyridin-3-ylmethyl]-9H-purine-2,6-diamine], the remaining activity at 0.1 µM in experiment [4] turned out to be 49.2%; in experiment [5], 54.1%; in experiment [6], 32.6%. Besides, the remaining activity at 1 µM in experiment [4] worked out at 23.6%; in experiment [5], 24.1%; in experiment [6] it was 1.03%. The IC50 in experiment [3] (24 h) is greater than 50000 nM; in experiment [3] (72 h) it was 520 nM; in experiment [1], 233 nM; in experiment [2] it was 417 nM.
For the compound `OC1CCC(Nc2nc(NCc3ccc(-c4ccco4)nc3)c3ncn(C4CCCC4)c3n2)CC1` (stereo not drawn) [BP21, 4-{9-cyclopentyl-6-[(6-furan-2-yl-pyridin-3-ylmethyl)-amino]-9H-purine-2-ylamino}-cyklohexanol], the remaining activity at 0.1 µM in experiment [4] was found to be 88.2%; in experiment [5], 72%; in experiment [6], 49%. Also, the values for the remaining activity at 1 µM in experiment [4], in experiment [5] and in experiment [6] were 23.4%, 48.5% and 7.74%, respectively. In addition, the IC50 in experiment [1] was 487 nM; in experiment [2], 38 nM.
Take `Nc1ccccc1-c1ccc(CNc2nc(NC3CCC(N)CC3)nc3c2ncn3C2CCCC2)cn1` (stereo not drawn) [BP22, N^2-(4-amino-cyclohexyl)-9-cyclopentyl-N^6-[6-(2-amino-phenyl)-pyridin-3-ylmethyl]-9H-purine-2,6-diamine]: the results for the remaining activity at 0.1 µM in experiment [4], in experiment [5] and in experiment [6] were 87.8%, 70% and 93.4%, respectively. In addition, the remaining activity at 1 µM amounted to 89% in experiment [4], 93.9% in experiment [5] and 82.8% in experiment [6]. Moreover, the IC50 was 487 nM in experiment [1] and greater than 1000 nM in experiment [2].
As for `NC1CCC(Nc2nc(NCc3ccc(-n4cccn4)cc3)c3ncn(C4CCCC4)c3n2)CC1` (stereo not drawn) [BP24, N^2-(4-amino-cyclohexyl)-9-cyclopentyl-N^6-(4-pyrazol-1-yl-benzyl)-9H-purine-2,6-diamine], the IC50 in experiment [3] (24 h) was greater than 50000 nM; in experiment [3] (72 h) it was 170 nM; in experiment [1] it was 115 nM; in experiment [2] it was 142 nM.
For the compound `Nc1ccccc1-c1ccc(CNc2nc(NC3CCC(N)CC3)nc3c2ncn3C2CCCC2)cc1` (stereo not drawn) [BP32, N^2-(4-amino-cyclohexyl)-9-cyclopentyl-N^6-(2′-amino-biphenyl-4-ylmethyl)-9H-purine-2,6-diamine], the figures for the IC50 in experiment [1] and in experiment [2] were 400 nM and greater than 1000 nM, respectively.
